Laboratory results reported in patent US20100130604A1, “USE OF ROSMARINIC ACID IN MANUFACTURE OF MEDICAMENTS FOR TREATING OR PREVENTING HEPATIC AND RENAL DISEASES” (SHANGDONG LUYE NATURAL DRUG RESEARCH AND DEVELOPMENT CO., …, priority 2006, published 2010).
Like-named read-outs stand apart in the source and are kept apart here.

Key:
CTGF = experiment: Western blot of intracellular CTGF protein expression in PTECs; assay type: cell-based; settings: for CTGF expression: 72 h, relative OD of band
Method: Western blot method was used to detect intracellular CTGF expression. PTEC cells at logarithmic phase were seeded to 96-well plate at the density of 1×10^5/mL. The medium was replaced with serum-free DMEM 24 hours later and the cell culture was cultured statically for 24 hours. Treat the wells as mentioned above. 72 hours later, cellular protein was extracted from the cell lysate according to modified Lowry method (Peterson G L. A simplification of the protein assay method of Lowry et al, which is more generally applicable. Anal Biochem, 1977, 83:346). 75 μg of total protein was loaded on each lane and all lanes were subject to 12% SDS-PAGE before the protein was transferred onto nitrocellulose membrane. Dye with Ponceau S (Sigma) to confirm transference and mark relative molecular weight standards. The membrane was then blocked in 5% solution of skimmed milk powder in TBST for 1 hour at room temperature. After washing, multiclonal goat-anti-rat anti-CTGF antibody (1:500, from Santa Cruz Co. Ltd.) was added and incubated overnight at 4° C. Then HRP-labeled anti-goat IgG secondary antibody (1:2 500, from Santa Cruz Co. Ltd.) was added and incubated at 37° C. for 1 hour. After rinsing, develop with 3,3-diaminobenzidine (DAB). Relative OD values of each band were analysed and the data are presented as χ±s. SPSS software was used in statistical analysis. ANOVA was applied for multi-group comparison.

HSC-T6 cells = experiment: Inhibitory effect of RA on HSC-T6 cell growth (MTT); assay type: cell-based; settings: for inhibition at 0.1 µg/mL / inhibition at 1 µg/mL / inhibition at 10 µg/mL / inhibition at 50 µg/mL / inhibition at 100 µg/mL: HSC-T6, read-out: Inhibition rate (%); for inhibition at 0.1 µg/mL: 0.1 mg/L; for inhibition at 1 µg/mL: 1 mg/L; for inhibition at 10 µg/mL: 10 mg/L; for inhibition at 50 µg/mL: 50 mg/L; for inhibition at 100 µg/mL: 100 mg/L
Text: Cells and experimental groups: HSC cell line was HSC-T6 (Shanghai Biosis Biotechnology Co. Ltd.), with the phenotype of active HSC. The cells were divided into groups for 0, 2.5, 5, 10, 20, and 40 μmol·L^−1 of RA. MTT method (Ye T and Liu X C, Effect of Pentoxifilline on Proliferation of Mesangial Cell Cultured in glucose-rich Medium and on CTGF Expression, Chinese Pharmacological Bulletin, 2004, 20(8): 883-885) was used to determine the effective RA concentration. Effects of RA on HSC-T6 proliferation and CTGF expression were examined.
A 1000 mg/L stock solution of RA in DMEM medium was prepared, and filtered through 0.22 μm microfilter to remove bacteria. The stock was then aliquoted in appropriate containers and stored at −20° C. in dark. It is good for use within 2 weeks. DMEM supplemented with 2% fetal bovine serum (FBS) was used to dilute the stock to desired concentrations before use.
HSC-T6 cells were cultured in DMEM supplemented with 100 U·mL^−1 penicillin, 100 U·mL^−1 streptomycin, and 10% FBS at 37° C., 5% CO2, and saturated humidity. Medium was changed every other day. The culture was digested with 0.002% EDTA and 0.25% trypsin at 80-90% confluence. And the cells were passaged at 1:4.
HSC-T6 cells at logarithmic phase after thawed were digested with trypsin and seeded to 96-well plate in DMEM supplemented with 5% FBS at the density of 1×10^4. After 24 hours culture, different concentrations of RA were added according to table 1. Each concentration of RA was added to 6 wells. Blank wells were designed to serve as control. […] The supernatant was discarded after 4 hours of incubation, and […] of dimethyl sufoxide (DMSO) was added to each well to obtain cell lysate, which was then shaken well before detected for OD value on ELISA reader (492 nm). Cell growth inhibition rates were calculated.

`O=C(/C=C/c1ccc(O)c(O)c1)O[C@H](Cc1ccc(O)c(O)c1)C(=O)O` [RA, R(+)2-{[3-(3,4-dihydroxylphenyl-(oxo-2-propenyl)oxy]3,4-dihydroxylphenylpropionic acid]}] was tested, and the “intracellular CTGF expression compared with the HG group” value (CTGF; 10 mg/L and 50 mg/L RA) was “significantly down-regulated”, the CTGF expression (CTGF; HG + 10 mg/L RA) was 5244 ± 106 and the CTGF expression (CTGF; HG + 50 mg/L RA) was 5345 ± 95. For the same molecule, the inhibition at 0.1 µg/mL (HSC-T6 cells; 12 h) was 9.8 ± 2.3%, the inhibition at 0.1 µg/mL (HSC-T6 cells; 24 h) was 12.1 ± 2.2% and the inhibition at 0.1 µg/mL (HSC-T6 cells; 48 h) was 14.4 ± 2.3%. For the same molecule, the inhibition at 1 µg/mL (HSC-T6 cells; 12 h) was 20.7 ± 2%, the inhibition at 1 µg/mL (HSC-T6 cells; 24 h) was 23 ± 2% and the inhibition at 1 µg/mL (HSC-T6 cells; 48 h) was 25.3 ± 2.1%. For the same molecule, the inhibition at 10 µg/mL (HSC-T6 cells; 12 h) was 37.2 ± 2.6%, the inhibition at 10 µg/mL (HSC-T6 cells; 24 h) was 38.6 ± 1.9% and the inhibition at 10 µg/mL (HSC-T6 cells; 48 h) was 38.9 ± 3.2%. The inhibition at 50 µg/mL (HSC-T6 cells; 12 h) was 52.3 ± 4.7%, the inhibition at 50 µg/mL (HSC-T6 cells; 24 h) was 54.6 ± 4.6% and the inhibition at 50 µg/mL (HSC-T6 cells; 48 h) was 55.2 ± 3.5%. For the same molecule, the inhibition at 100 µg/mL (HSC-T6 cells; 12 h) was 57.2 ± 2.3%, the inhibition at 100 µg/mL (HSC-T6 cells; 24 h) was 59.6 ± 2.1% and the inhibition at 100 µg/mL (HSC-T6 cells; 48 h) was 61.8 ± 2.2%. The “HSC-T6 proliferation compared to the control group” value (HSC-T6 cells; different concentrations of RA) was “significantly inhibited HSC-T6 proliferation”.
